Our source for the IC50 values is US10793564B2, “Amino acid compounds and methods of use” (Pliant Therapeutics, Inc., priority 2018, dated 2020).

recombinant human integrin αVβ6, sequence (P06756 31-992): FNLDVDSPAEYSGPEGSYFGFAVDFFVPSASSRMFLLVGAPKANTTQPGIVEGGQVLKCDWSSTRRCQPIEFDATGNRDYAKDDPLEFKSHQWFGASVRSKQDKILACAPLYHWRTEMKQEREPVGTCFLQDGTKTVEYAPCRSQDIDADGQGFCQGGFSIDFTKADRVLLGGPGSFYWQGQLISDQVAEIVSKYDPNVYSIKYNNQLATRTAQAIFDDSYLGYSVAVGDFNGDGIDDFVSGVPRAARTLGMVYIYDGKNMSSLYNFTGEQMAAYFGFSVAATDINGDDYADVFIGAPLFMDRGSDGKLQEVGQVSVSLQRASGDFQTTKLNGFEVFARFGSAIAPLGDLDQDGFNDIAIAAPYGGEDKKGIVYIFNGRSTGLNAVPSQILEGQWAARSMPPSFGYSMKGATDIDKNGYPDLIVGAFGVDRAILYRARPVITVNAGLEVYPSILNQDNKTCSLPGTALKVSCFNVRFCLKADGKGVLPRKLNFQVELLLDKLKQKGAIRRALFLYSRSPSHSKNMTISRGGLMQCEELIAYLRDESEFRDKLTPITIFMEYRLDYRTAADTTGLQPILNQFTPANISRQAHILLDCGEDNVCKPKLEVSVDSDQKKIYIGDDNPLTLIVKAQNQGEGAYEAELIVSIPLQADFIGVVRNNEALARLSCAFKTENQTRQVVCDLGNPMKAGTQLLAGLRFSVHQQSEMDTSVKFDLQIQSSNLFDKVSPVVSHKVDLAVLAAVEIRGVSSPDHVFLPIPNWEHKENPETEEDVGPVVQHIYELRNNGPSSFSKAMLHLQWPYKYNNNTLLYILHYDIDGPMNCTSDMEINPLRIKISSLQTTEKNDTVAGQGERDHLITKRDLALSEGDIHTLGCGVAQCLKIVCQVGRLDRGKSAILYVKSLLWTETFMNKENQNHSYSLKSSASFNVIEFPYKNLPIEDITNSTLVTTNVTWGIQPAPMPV
recombinant human integrin αVβ6, sequence (P18564 22-707): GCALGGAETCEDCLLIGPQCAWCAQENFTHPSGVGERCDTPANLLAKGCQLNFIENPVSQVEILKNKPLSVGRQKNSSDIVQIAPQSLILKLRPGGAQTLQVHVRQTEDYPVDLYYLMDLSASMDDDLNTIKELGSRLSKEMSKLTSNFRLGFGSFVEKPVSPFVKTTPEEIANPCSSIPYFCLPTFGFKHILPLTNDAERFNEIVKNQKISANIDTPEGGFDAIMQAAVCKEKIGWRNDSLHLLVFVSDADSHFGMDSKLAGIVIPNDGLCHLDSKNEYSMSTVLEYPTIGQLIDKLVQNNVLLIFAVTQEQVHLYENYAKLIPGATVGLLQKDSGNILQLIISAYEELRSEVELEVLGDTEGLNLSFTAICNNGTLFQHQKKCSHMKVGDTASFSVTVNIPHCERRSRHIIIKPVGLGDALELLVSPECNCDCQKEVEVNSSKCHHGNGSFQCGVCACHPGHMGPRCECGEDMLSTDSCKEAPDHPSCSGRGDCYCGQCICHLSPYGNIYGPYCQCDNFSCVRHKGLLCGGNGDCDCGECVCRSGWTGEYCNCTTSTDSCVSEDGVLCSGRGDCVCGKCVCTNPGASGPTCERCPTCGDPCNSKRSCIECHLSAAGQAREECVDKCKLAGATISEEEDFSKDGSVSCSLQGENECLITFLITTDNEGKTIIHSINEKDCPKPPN

For the assay, the target named is recombinant human integrin αVβ6 (Homo sapiens (Human), UniProt P06756+P18564). The assay is described as follows: Solid phase integrin αVβ6 binding assay. Conditions: inhibition of recombinant TGFβ1 LAP binding to coated integrin, IC50 presented in four ranges, read-out: αvβ6 Inhibition IC50 (nM) - range. On the procedure:
(§1) Microplates were coated with recombinant human integrin αVβ6 (2 μg/mL) in PBS (100 μL/well 25° C., overnight). The coating solution was removed, washed with wash buffer (0.05% Tween 20; 0.5 mM MnCl2; in 1×TBS). The plate was blocked with 200 μL/well of Block Buffer (1% BSA; 5% sucrose; 0.5 mM MnCl2; in 1×TBS) at 37° C. for 2 h. Dilutions of testing compounds and recombinant TGFβ1 LAP (0.67 μg/mL) in binding buffer (0.05% BSA; 2.5% sucrose; 0.5 mM MnCl2; in 1×TBS) were added. The plate was incubated for 2 hours at 25° C., washed, and incubated for 1 hour with Biotin-Anti-hLAP. Bound antibody was detected by peroxidase-conjugated streptavidin. The IC50 values for testing compounds were calculated by a four-parameter logistic regression.
The compounds tested were compound samples prepared according to procedures described in the Synthetic Examples section, with the stereochemical purity as indicated in the Examples.
as §1, with “A third series of exemplary compounds was selected for testing in the solid phase integrin αVβ6 binding assay. The compounds tested were compound samples prepared according to procedures described in the Synthetic Examples section, with the stereochemical purity as indicated in the Examples. As in Example B1, microplates were” for “Microplates were”, “(0.67 g/mL)” for “(0.67 μg/mL)”
In the case of `CS(=O)(=O)CCN(CCCCc1ccc2c(n1)NCCC2)CC[C@H](Nc1ncc(C(F)(F)F)cn1)C(=O)O` [Compound 102, (S)-4-((2-(methylsulfonyl)ethyl) (4-(5,6,7,8-tetrahydro-1,8-naphthyridin-2-yl)butyl)amino)-2-((5-(trifluoromethyl)pyrimidin-2-yl)amino) butanoic Acid], the IC50 (in general, the concentration needed to halve the response being measured) was over 1000 nM.

Take `COCCN(CCCCc1ccc2c(n1)NCCC2)CC[C@H](Nc1ncnc2c(Cl)cccc12)C(=O)O` [Compound 38, (S)-2-((8-chloroquinazolin-4-yl)amino)-4-((2-methoxyethyl) (4-(5,6,7,8-tetrahydro-1,8-naphthyridin-2-yl)butyl)amino) butanoic Acid]: the IC50 is under 50 nM.

In the case of `O=C(O)[C@H](CCN(CCCCc1ccc2c(n1)NCCC2)CC(F)F)Nc1cc(-n2cccn2)ncn1` [Compound 98, (S)-2-((6-(1H-pyrazol-1-yl)pyrimidin-4-yl)amino)-4-((2,2-difluoroethyl) (4-(5,6,7,8-tetrahydro-1,8-naphthyridin-2-yl)butyl)amino) butanoic Acid], the IC50 is over 1000 nM.

As for `Cc1nc(N[C@@H](CCN(CCCCc2ccc3c(n2)NCCC3)CCOc2cncc(F)c2)C(=O)O)c2ccc(F)cc2n1` [Compound 61, (S)-2-((7-fluoro-2-methylquinazolin-4-yl)amino)-4-((2-((5-fluoropyridin-3-yl)oxy)ethyl) (4-(5,6,7,8-tetrahydro-1,8-naphthyridin-2-yl)butyl)amino) butanoic Acid], the 50% inhibitory concentration (IC50) is under 50 nM.

For `CO[C@H](C)CN(CCCCc1ccc2c(n1)NCCC2)CC[C@H](Nc1ccncn1)C(=O)O` [Compound 106, (S)-4-(((R)-2-methoxypropyl) (4-(5,6,7,8-tetrahydro-1,8-naphthyridin-2-yl)butyl)amino)-2-(pyrimidin-4-ylamino) butanoic Acid], the IC50 is under 50 nM.

Consider `O=C(O)[C@H](CCN(CCCCc1ccc2c(n1)NCCC2)CCOc1ccc(F)cc1)Nc1ncc(C(F)(F)F)cn1` [Compound 139, (S)-4-((2-(4-fluorophenoxy)ethyl) (4-(5,6,7,8-tetrahydro-1,8-naphthyridin-2-yl)butyl)amino)-2-((5-(trifluoromethyl)pyrimidin-2-yl)amino) butanoic Acid], for which the IC50 is under 50 nM.

Turning to `O=C(O)[C@H](CCN(CCCCc1ccc2c(n1)NCCC2)CCOc1cncc(F)c1)Nc1ncnc2ccccc12` [Compound 58, (S)-4-((2-((5-fluoropyridin-3-yl)oxy)ethyl) (4-(5,6,7,8-tetrahydro-1,8-naphthyridin-2-yl)butyl)amino)-2-(quinazolin-4-ylamino) butanoic Acid], the IC50 is under 50 nM.

In the case of `O=C(O)[C@H](CCN(CCCCc1ccc2c(n1)NCCC2)CC(F)F)Nc1ncnc2[nH]ncc12` [Compound 112, (S)-2-((1H-pyrazolo[3,4-d]pyrimidin-4-yl)amino)-4-((2,2-difluoroethyl) (4-(5,6,7,8-tetrahydro-1,8-naphthyridin-2-yl)butyl)amino) butanoic Acid], the IC50 lay in the range of 250 to 1000 nM.

Regarding `COCCN(CCCCc1ccc2c(n1)NCCC2)CC[C@H](Nc1ncnc2cc(Cl)ccc12)C(=O)O` [Compound 37, (S)-2-((7-chloroquinazolin-4-yl)amino)-4-((2-methoxyethyl) (4-(5,6,7,8-tetrahydro-1,8-naphthyridin-2-yl)butyl)amino) butanoic Acid], the IC50 was 50 to 250 nM.

Regarding `CS(=O)(=O)CCN(CCCCc1ccc2c(n1)NCCC2)CC[C@H](Nc1nc(-c2cccnc2)nc2ccccc12)C(=O)O` [Compound 107, (S)-4-((2-(methylsulfonyl)ethyl) (4-(5,6,7,8-tetrahydro-1,8-naphthyridin-2-yl)butyl)amino)-2-((2-(pyridin-3-yl)quinazolin-4-yl)amino) butanoic Acid], the half-inhibitory concentration (IC50) was 250 to 1000 nM.

Take `O=C(O)[C@H](CCN(CCCCc1ccc2c(n1)NCCC2)CCOCC(F)(F)F)Nc1ncnc2ccccc12` [Compound 39, (S)-2-(quinazolin-4-ylamino)-4-((4-(5,6,7,8-tetrahydro-1,8-naphthyridin-2-yl)butyl) (2-(2,2,2-trifluoroethoxy)ethyl)amino) butanoic Acid]: the IC50 was under 50 nM.

On to `CC(C)(O)CN(CCCCc1ccc2c(n1)NCCC2)CC[C@H](Nc1ccncn1)C(=O)O` [Compound 4, (S)-4-((2-hydroxy-2-methylpropyl) (4-(5,6,7,8-tetrahydro-1,8-naphthyridin-2-yl)butyl)amino)-2-(pyrimidin-4-ylamino) butanoic Acid], for which the IC50 is 50 to 250 nM.

As to `CS(=O)(=O)CCN(CCCCc1ccc2c(n1)NCCC2)CC[C@H](Nc1ncnc2[nH]ncc12)C(=O)O` [Compound 125, (S)-2-((1H-pyrazolo[3,4-d]pyrimidin-4-yl)amino)-4-((2-(methylsulfonyl)ethyl) (4-(5,6,7,8-tetrahydro-1,8-naphthyridin-2-yl)butyl)amino) butanoic Acid], the IC50 was 50 to 250 nM.

Regarding `Cc1nc(N[C@@H](CCN(CCCCc2ccc3c(n2)NCCC3)CCOc2ccc(F)cc2)C(=O)O)c2ccc(F)cc2n1` [Compound 40, (S)-2-((7-fluoro-2-methylquinazolin-4-yl)amino)-4-((2-(4-fluorophenoxy)ethyl) (4-(5,6,7,8-tetrahydro-1,8-naphthyridin-2-yl)butyl)amino) butanoic Acid], the 50% inhibitory concentration (IC50) is under 50 nM.

On to `COCCN(CCCCc1ccc2c(n1)NCCC2)CC[C@H](Nc1cc(-n2cccn2)ncn1)C(=O)O` [Compound 44, (S)-2-((6-(1H-pyrazol-1-yl)pyrimidin-4-yl)amino)-4-((2-methoxyethyl) (4-(5,6,7,8-tetrahydro-1,8-naphthyridin-2-yl)butyl)amino) butanoic Acid], for which the concentration for half-maximal inhibition (IC50) is under 50 nM.

As for `COCCN(CCCCc1ccc2c(n1)NCCC2)CC[C@H](Nc1ncnc2cnccc12)C(=O)O` [Compound 17, (S)-4-((2-methoxyethyl) (4-(5,6,7,8-tetrahydro-1,8-naphthyridin-2-yl)butyl)amino)-2-(pyrido[3,4-d]pyrimidin-4-ylamino) butanoic Acid], the IC50 is under 50 nM.

Take `COCCN(CCCCc1ccc2c(n1)NCCC2)CC[C@H](Nc1ncnc2cc(F)c(F)cc12)C(=O)O` [Compound 21, (S)-2-((6,7-difluoroquinazolin-4-yl)amino)-4-((2-methoxyethyl) (4-(5,6,7,8-tetrahydro-1,8-naphthyridin-2-yl)butyl)amino) butanoic Acid]: the IC50 is under 50 nM.

As to `CO[C@@H](C)CN(CCCCc1ccc2c(n1)NCCC2)CC[C@H](Nc1ncnc2ccccc12)C(=O)O` [Compound 25, (S)-4-(((S)-2-methoxypropyl) (4-(5,6,7,8-tetrahydro-1,8-naphthyridin-2-yl)butyl)amino)-2-(quinazolin-4-ylamino) butanoic Acid], the IC50 is under 50 nM.

Consider `CO[C@H](C)CN(CCCCc1ccc2c(n1)NCCC2)CC[C@H](Nc1nc(-c2cccnc2)nc2ccccc12)C(=O)O` [Compound 100, (S)-4-(((R)-2-methoxypropyl) (4-(5,6,7,8-tetrahydro-1,8-naphthyridin-2-yl)butyl)amino)-2-((2-(pyridin-3-yl)quinazolin-4-yl)amino) butanoic Acid], for which the IC50 is under 50 nM.

In the case of `CC(=O)NCCN(CCCCc1ccc2c(n1)NCCC2)CC[C@H](Nc1ncnc2ccccc12)C(=O)O` [Compound 63, (S)-4-((2-acetamidoethyl) (4-(5,6,7,8-tetrahydro-1,8-naphthyridin-2-yl)butyl)amino)-2-(quinazolin-4-ylamino) butanoic Acid], the IC50 was under 50 nM.
